From PubChem BioAssay (NCI)
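Results reflect a 48-hour exposure of cells in 96-well plates to compound at five concentrations. TGI denotes the concentration required for complete inhibition of growth.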

Assays:
Assay in all cases: NCI tumour cell line growth inhibition, 48 h
SNB-75 CNS = tested on: SNB-75 CNS
SR leukemia = tested on: SR leukemia
NCI-H23 lung = tested on: NCI-H23 lung
LOX IMVI melanoma = tested on: LOX IMVI melanoma
M14 melanoma = tested on: M14 melanoma
DU-145 prostate = tested on: DU-145 prostate
SK-MEL-5 melanoma = tested on: SK-MEL-5 melanoma
OVCAR-4 ovarian = tested on: OVCAR-4 ovarian
BT-549 breast = tested on: BT-549 breast
UACC-62 melanoma = tested on: UACC-62 melanoma
OVCAR-3 ovarian = tested on: OVCAR-3 ovarian
HOP-92 NSCLC = tested on: HOP-92 NSCLC
OVCAR-5 ovarian = tested on: OVCAR-5 ovarian
UACC-257 melanoma = tested on: UACC-257 melanoma
HOP-62 NSCLC = tested on: HOP-62 NSCLC
SN12C renal = tested on: SN12C renal
MDA-MB-435 = tested on: MDA-MB-435
CCRF-CEM leukemia = tested on: CCRF-CEM leukemia
HCT-15 colon = tested on: HCT-15 colon
U251 CNS = tested on: U251 CNS
MCF7 breast = tested on: MCF7 breast
HCT-116 colon = tested on: HCT-116 colon
TK-10 renal = tested on: TK-10 renal
786-0 renal = tested on: 786-0 renal
KM12 colon = tested on: KM12 colon
SW-620 colon = tested on: SW-620 colon
HCC-2998 colon = tested on: HCC-2998 colon
HT29 colon = tested on: HT29 colon
NCI-H522 lung = tested on: NCI-H522 lung
RXF 393 renal = tested on: RXF 393 renal
ACHN renal = tested on: ACHN renal
SK-MEL-28 melanoma = tested on: SK-MEL-28 melanoma
RPMI-8226 leukemia = tested on: RPMI-8226 leukemia
UO-31 renal = tested on: UO-31 renal
OVCAR-8 ovarian = tested on: OVCAR-8 ovarian
COLO 205 colon = tested on: COLO 205 colon
SK-MEL-2 melanoma = tested on: SK-MEL-2 melanoma
MOLT-4 leukemia = tested on: MOLT-4 leukemia
A549 NSCLC = tested on: A549 NSCLC
IGROV1 ovarian = tested on: IGROV1 ovarian
SF-268 CNS = tested on: SF-268 CNS
PC-3 prostate = tested on: PC-3 prostate
SF-539 CNS = tested on: SF-539 CNS
MDA-MB-231 breast = tested on: MDA-MB-231 breast
SNB-19 CNS = tested on: SNB-19 CNS
EKVX NSCLC = tested on: EKVX NSCLC
MDA-N = tested on: MDA-N
SF-295 CNS = tested on: SF-295 CNS
K-562 leukemia = tested on: K-562 leukemia
NCI/ADR-RES ovarian = tested on: NCI/ADR-RES ovarian
SK-OV-3 ovarian = tested on: SK-OV-3 ovarian
NCI-H226 lung = tested on: NCI-H226 lung
MALME-3M melanoma = tested on: MALME-3M melanoma
CAKI-1 renal = tested on: CAKI-1 renal
HL-60(TB) leukemia = tested on: HL-60(TB) leukemia
NCI-H460 lung = tested on: NCI-H460 lung
A498 renal = tested on: A498 renal

Measured: TGI

CCc1nnc(CC)n1-n1c(Cc2ccccc2)n[nH]c1=O
> 100 µM: SNB-75 CNS | SR leukemia | NCI-H23 lung | LOX IMVI melanoma | M14 melanoma | DU-145 prostate | SK-MEL-5 melanoma | OVCAR-4 ovarian | BT-549 breast | UACC-62 melanoma | OVCAR-3 ovarian | HOP-92 NSCLC | OVCAR-5 ovarian | UACC-257 melanoma | HOP-62 NSCLC | SN12C renal | MDA-MB-435 | CCRF-CEM leukemia | HCT-15 colon | U251 CNS | MCF7 breast | HCT-116 colon | TK-10 renal | 786-0 renal | KM12 colon | SW-620 colon | HCC-2998 colon | HT29 colon | NCI-H522 lung | RXF 393 renal | ACHN renal | SK-MEL-28 melanoma | RPMI-8226 leukemia | UO-31 renal | OVCAR-8 ovarian | COLO 205 colon | SK-MEL-2 melanoma | MOLT-4 leukemia | A549 NSCLC | IGROV1 ovarian | SF-268 CNS | PC-3 prostate | SF-539 CNS | MDA-MB-231 breast | SNB-19 CNS | EKVX NSCLC | MDA-N | SF-295 CNS | K-562 leukemia | NCI/ADR-RES ovarian | SK-OV-3 ovarian

c1ccc2c(c1)c(N1CCCCC1)cc1nc3c(cc(N4CCCCC4)c4ccccc43)nc12
> 100 µM: SNB-75 CNS | SR leukemia | NCI-H23 lung | LOX IMVI melanoma | NCI-H226 lung | MALME-3M melanoma | M14 melanoma | DU-145 prostate | CAKI-1 renal | SK-MEL-5 melanoma | OVCAR-4 ovarian | BT-549 breast | UACC-62 melanoma | OVCAR-3 ovarian | HOP-92 NSCLC | OVCAR-5 ovarian | UACC-257 melanoma | HL-60(TB) leukemia | HOP-62 NSCLC | SN12C renal | MDA-MB-435 | CCRF-CEM leukemia | HCT-15 colon | U251 CNS | MCF7 breast | HCT-116 colon | NCI-H460 lung | 786-0 renal | KM12 colon | SW-620 colon | HCC-2998 colon | HT29 colon | NCI-H522 lung | RXF 393 renal | ACHN renal | SK-MEL-28 melanoma | RPMI-8226 leukemia | UO-31 renal | OVCAR-8 ovarian | COLO 205 colon | SK-MEL-2 melanoma | MOLT-4 leukemia | A549 NSCLC | IGROV1 ovarian | A498 renal | PC-3 prostate | SF-539 CNS | MDA-MB-231 breast | SNB-19 CNS | EKVX NSCLC | MDA-N | SF-295 CNS | K-562 leukemia | NCI/ADR-RES ovarian | SK-OV-3 ovarian

COC(=O)[C@@]12CCCC(=O)[C@@H]1[C@H]1CCC[C@H]12
> 100 µM: SNB-75 CNS | SR leukemia | NCI-H23 lung | LOX IMVI melanoma | NCI-H226 lung | MALME-3M melanoma | M14 melanoma | DU-145 prostate | CAKI-1 renal | SK-MEL-5 melanoma | OVCAR-4 ovarian | BT-549 breast | UACC-62 melanoma | OVCAR-3 ovarian | HOP-92 NSCLC | OVCAR-5 ovarian | UACC-257 melanoma | HOP-62 NSCLC | SN12C renal | MDA-MB-435 | CCRF-CEM leukemia | HCT-15 colon | U251 CNS | MCF7 breast | HCT-116 colon | NCI-H460 lung | TK-10 renal | 786-0 renal | KM12 colon | SW-620 colon | HCC-2998 colon | HT29 colon | NCI-H522 lung | RXF 393 renal | ACHN renal | SK-MEL-28 melanoma | RPMI-8226 leukemia | UO-31 renal | OVCAR-8 ovarian | COLO 205 colon | SK-MEL-2 melanoma | MOLT-4 leukemia | A549 NSCLC | IGROV1 ovarian | SF-268 CNS | PC-3 prostate | SF-539 CNS | MDA-MB-231 breast | SNB-19 CNS | EKVX NSCLC | MDA-N | SF-295 CNS | K-562 leukemia | NCI/ADR-RES ovarian | SK-OV-3 ovarian
